# Where “and” joins values, the source holds several entries; their conditions need not be identical. Equal entries are not always repeated. Calls of active or inactive are those of the source. The calls are words filed in the database; no cut-off is given here.
# How the values were obtained:
# [1] = molecular target: T1, Angiotensin-converting enzyme (Oryctolagus cuniculus) (UniProt P12822); test: Time to inhibit maximum Angiotensin I converting enzyme in rabbit lung; format: functional, tissue-based
# T1 sequence (whole entry): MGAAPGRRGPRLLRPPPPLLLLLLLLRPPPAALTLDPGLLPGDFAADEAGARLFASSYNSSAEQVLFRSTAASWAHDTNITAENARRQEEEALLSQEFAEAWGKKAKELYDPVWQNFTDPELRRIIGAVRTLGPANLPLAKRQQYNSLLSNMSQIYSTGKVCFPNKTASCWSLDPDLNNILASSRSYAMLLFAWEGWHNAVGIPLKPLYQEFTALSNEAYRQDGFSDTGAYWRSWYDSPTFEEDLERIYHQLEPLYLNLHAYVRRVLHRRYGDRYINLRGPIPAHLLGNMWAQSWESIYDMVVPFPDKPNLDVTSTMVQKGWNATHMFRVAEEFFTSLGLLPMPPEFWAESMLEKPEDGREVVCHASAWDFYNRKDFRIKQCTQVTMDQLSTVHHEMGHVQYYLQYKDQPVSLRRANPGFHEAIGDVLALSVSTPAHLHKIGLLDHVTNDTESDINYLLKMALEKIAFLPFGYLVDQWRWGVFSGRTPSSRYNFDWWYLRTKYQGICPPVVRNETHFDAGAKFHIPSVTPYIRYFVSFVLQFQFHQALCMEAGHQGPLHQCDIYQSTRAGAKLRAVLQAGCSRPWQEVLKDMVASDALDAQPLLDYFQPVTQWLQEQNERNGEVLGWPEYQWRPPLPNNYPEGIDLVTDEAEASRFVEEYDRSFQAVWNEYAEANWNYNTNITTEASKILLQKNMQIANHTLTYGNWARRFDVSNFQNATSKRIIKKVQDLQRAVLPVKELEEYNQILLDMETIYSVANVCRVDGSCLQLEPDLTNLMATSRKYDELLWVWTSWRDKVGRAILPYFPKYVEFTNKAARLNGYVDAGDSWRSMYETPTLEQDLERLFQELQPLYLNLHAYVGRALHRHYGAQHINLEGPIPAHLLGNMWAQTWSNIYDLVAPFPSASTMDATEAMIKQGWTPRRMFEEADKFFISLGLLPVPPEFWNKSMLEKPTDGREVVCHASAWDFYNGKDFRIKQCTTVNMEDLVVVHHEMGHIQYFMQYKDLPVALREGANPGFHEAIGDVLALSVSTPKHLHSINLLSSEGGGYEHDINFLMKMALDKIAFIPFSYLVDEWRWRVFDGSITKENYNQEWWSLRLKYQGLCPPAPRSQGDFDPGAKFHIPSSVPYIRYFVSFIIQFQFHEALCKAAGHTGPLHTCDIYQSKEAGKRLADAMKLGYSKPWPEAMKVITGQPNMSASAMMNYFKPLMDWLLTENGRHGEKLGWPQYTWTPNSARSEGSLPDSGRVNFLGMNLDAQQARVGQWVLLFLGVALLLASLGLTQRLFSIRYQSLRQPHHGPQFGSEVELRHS
# [2] = molecular target: T1, Angiotensin-converting enzyme (Oryctolagus cuniculus); conditions: Lung
# [3] = molecular target: T1, Angiotensin-converting enzyme (Oryctolagus cuniculus); test: In vivo inhibition of Angiotensin I converting enzyme in rabbit lung after (po) administration of a dose of 10(mg/kg); format: organism-based
# Rattus norvegicus [4] = test: Percent change in Na+in fasted rats at the dose of 100 mg/kg (po), 0-5 h; format: functional
# Rattus norvegicus [5] = test: Percent change in Na+ in fasted rats at the dose of 30 mg/kg (iv), 0-5 h; format: functional
# [6] = molecular target: T1, Angiotensin-converting enzyme (Oryctolagus cuniculus); test: Time to inhibit maximum angiotensin I converting enzyme in rabbit lung; format: functional, tissue-based
# [7] = molecular target: T1, Angiotensin-converting enzyme (Oryctolagus cuniculus); test: In vivo inhibition of angiotensin I converting enzyme (ACE) in rabbit lung at the dose of 10(mg/kg), po; format: organism-based
# Rattus norvegicus [8] = test: Time duration was determined for the actioni (determination of MAP in case of oral administration) in rat; format: functional
# Rattus norvegicus [9] = test: Percent change in K+ in fasted rats at the dose of 100 mg/kg (po), 0-5 h; format: functional
# [10] = molecular target: T2, Angiotensin-converting enzyme (Oryctolagus cuniculus, UniProt P12822); test: In vitro inhibition of angiotensin I converting enzyme (ACE) in rabbit lung; format: tissue-based
# T2 sequence (P12822 whole entry): T1 sequence (whole entry)
# Rattus norvegicus [11] = test: Antihypertensive activity was determined in spontaneously hypertensive rat at a dose of 100 mg/kg(po) administration; format: functional; conditions: 100 mg/kg
# [12] = molecular target: T1, Angiotensin-converting enzyme (Oryctolagus cuniculus); test: In vivo inhibition of angiotensin I converting enzyme (ACE) in rabbit lung after (iv) administration of a dose of 10(mg/kg); format: organism-based
# Rattus norvegicus [13] = test: Time duration was determined for the actioni (determination of MAP in ip administration) in rat; format: functional
# Rattus norvegicus [14] = test: Percent change in urinary volume in fasted rats at the dose of 100 mg/kg (po), 0-5 h; format: functional, Urine
# Rattus norvegicus [15] = organism: Rattus norvegicus; test: The onset hour was determined in rat; format: functional
# [16] = molecular target: T1, Angiotensin-converting enzyme (Oryctolagus cuniculus); test: Time during which angiotensin I converting enzyme inhibition is greater than or equa to 30% in rabbit lung; format: functional, tissue-based
# Rattus norvegicus [17] = test: Percent change in urinary volume in fasted rats at the dose of 30 mg/kg (iv), 0-5 h; format: functional, Urine
# Rattus norvegicus [18] = test: Percent change in K+ in fasted rats at the dose of 30 mg/kg (iv), 0-5 h; format: functional
# [19] = tested on: Angiotensin-converting enzyme (Sus scrofa); test: Time to inhibit maximum Angiotensin I converting enzyme in Hog plasma
# [20] = molecular target: T1, Angiotensin-converting enzyme (Oryctolagus cuniculus); test: In vivo inhibition of Angiotensin I converting enzyme in rabbit lung after (iv) administration of a dose of 1.0(mg/kg); format: organism-based
# [21] = molecular target: T1, Angiotensin-converting enzyme (Oryctolagus cuniculus); test: In vivo inhibition of Angiotensin I converting enzyme in rabbit lung at the dose of 10(mg/kg), po; format: organism-based
# [22] = molecular target: T1, Angiotensin-converting enzyme (Oryctolagus cuniculus); test: Time during which Angiotensin I converting enzyme inhibition is greater than or equa to 30% in rabbit lung
# [23] = molecular target: T2, Angiotensin-converting enzyme; test: In vitro inhibition of Angiotensin I converting enzyme in rabbit lung; format: tissue-based
# [24] = tested on: Angiotensin-converting enzyme (Sus scrofa); test: Time during which ACE inhibition is greater than or equal to 30% in Hog plasma
# Rattus norvegicus [25] = test: Percent change in Na+in fasted rats at the dose of 25 mg/kg (iv), 5-24 h; format: functional
# Rattus norvegicus [26] = test: Percent change in urinary volume in fasted rats at the dose of 25 mg/kg (iv), 5-24 h; format: functional, Urine
# Rattus norvegicus [27] = test: Percent change in K+ in fasted rats at the dose of 25 mg/kg (iv), 5-24 h; format: functional
# Rattus norvegicus [28] = test: Percent change in K+ in fasted rats at the dose of 25 mg/kg (iv), 0-5 h; format: functional
# Rattus norvegicus [29] = test: Percent change in urinary volume in fasted rats at the dose of 25 mg/kg (iv), 0-5 h; format: functional, Urine
# Rattus norvegicus [30] = test: Percent change in Na+ in fasted rats at the dose of 25 mg/kg (iv), 0-5 h; format: functional
# Rattus norvegicus [31] = test: Antihypertensive activity was determined in spontaneously hypertensive rat at a dose of 100 mg/kg(ip) administration; format: functional
# Rattus norvegicus [32] = test: Percent change in K+ in fasted rats at the dose of 10 mg/kg (iv), 0-5 h; format: functional
# Rattus norvegicus [33] = test: Percent change in K+ in fasted rats at the dose of 30 mg/kg (po), 0-5 h; format: functional
# Rattus norvegicus [34] = test: Percent change in urinary volume in fasted rats at the dose of 10 mg/kg (iv), 0-5 h; format: functional, Urine
# Rattus norvegicus [35] = test: Percent change in urinary volume in fasted rats at the dose of 30 mg/kg (po), 0-5 h; format: functional, Urine
# Rattus norvegicus [36] = test: Percent change in Na+ in fasted rats at the dose of 10 mg/kg (iv), 0-5 h; format: functional
# Rattus norvegicus [37] = test: Percent change in Na+in fasted rats at the dose of 30 mg/kg (po), 0-5 h; format: functional
# Rattus norvegicus [38] = test: Time duration was determined for the actioni (determination of MAP in po administration) in rat; format: functional
# Rattus norvegicus [39] = test: Antihypertensive activity was determined in spontaneously hypertensive rat at a dose of 3 mg/kg(po) administration; format: functional
# [40] = molecular target: Angiotensin-converting enzyme (Homo sapiens) (UniProt P12821+Q9BYF1); conditions: Sus scrofa; Plasma
# [41] = molecular target: T1, Angiotensin-converting enzyme (Oryctolagus cuniculus); test: In vivo inhibition of angiotensin I converting enzyme (ACE) in rabbit lung after (ip) administration of a dose of 10(mg/kg); format: organism-based
# Rattus norvegicus [42] = test: Percent change in K+ in fasted rats at the dose of 100 mg/kg (po), 5-24 h; format: functional
# Rattus norvegicus [43] = test: Percent change in K+ in fasted rats at the dose of 100 mg/kg (iv), 0-5 h; NA=Inactive; format: functional, organism-based; set-up: dose 100 mg/kg
# [44] = molecular target: T1, Angiotensin-converting enzyme (Oryctolagus cuniculus); test: In vivo inhibition of angiotensin I converting enzyme(ACE) in rabbit lung at the dose of 10(mg/kg), po; format: organism-based
# [45] = molecular target: T1, Angiotensin-converting enzyme (Oryctolagus cuniculus); test: Time to maximum inhibition of angiotensin I converting enzyme in rabbit lung; format: functional, tissue-based
# Rattus norvegicus [46] = test: Percent change in urinary volume in fasted rats at the dose of 100 mg/kg (po), 5-24 h; format: functional, Urine
# Rattus norvegicus [47] = test: Percent change in Na+in fasted rats at the dose of 100 mg/kg (po), 5-24 h; format: functional
# Rattus norvegicus [48] = test: Percent change in K+ in fasted rats at the dose of 30 mg/kg (ip), 0-5 h; NA=Inactive; format: functional, organism-based; set-up: dose 30 mg/kg
# [49] = molecular target: T1, Angiotensin-converting enzyme (Oryctolagus cuniculus); test: In vivo inhibition of angiotensin I converting enzyme (ACE) in rabbit lung after (po) administration of a dose of 10(mg/kg); format: organism-based
# Angiotensin-converting enzyme (Homo sapiens), sequence (P12821 whole entry, looked up): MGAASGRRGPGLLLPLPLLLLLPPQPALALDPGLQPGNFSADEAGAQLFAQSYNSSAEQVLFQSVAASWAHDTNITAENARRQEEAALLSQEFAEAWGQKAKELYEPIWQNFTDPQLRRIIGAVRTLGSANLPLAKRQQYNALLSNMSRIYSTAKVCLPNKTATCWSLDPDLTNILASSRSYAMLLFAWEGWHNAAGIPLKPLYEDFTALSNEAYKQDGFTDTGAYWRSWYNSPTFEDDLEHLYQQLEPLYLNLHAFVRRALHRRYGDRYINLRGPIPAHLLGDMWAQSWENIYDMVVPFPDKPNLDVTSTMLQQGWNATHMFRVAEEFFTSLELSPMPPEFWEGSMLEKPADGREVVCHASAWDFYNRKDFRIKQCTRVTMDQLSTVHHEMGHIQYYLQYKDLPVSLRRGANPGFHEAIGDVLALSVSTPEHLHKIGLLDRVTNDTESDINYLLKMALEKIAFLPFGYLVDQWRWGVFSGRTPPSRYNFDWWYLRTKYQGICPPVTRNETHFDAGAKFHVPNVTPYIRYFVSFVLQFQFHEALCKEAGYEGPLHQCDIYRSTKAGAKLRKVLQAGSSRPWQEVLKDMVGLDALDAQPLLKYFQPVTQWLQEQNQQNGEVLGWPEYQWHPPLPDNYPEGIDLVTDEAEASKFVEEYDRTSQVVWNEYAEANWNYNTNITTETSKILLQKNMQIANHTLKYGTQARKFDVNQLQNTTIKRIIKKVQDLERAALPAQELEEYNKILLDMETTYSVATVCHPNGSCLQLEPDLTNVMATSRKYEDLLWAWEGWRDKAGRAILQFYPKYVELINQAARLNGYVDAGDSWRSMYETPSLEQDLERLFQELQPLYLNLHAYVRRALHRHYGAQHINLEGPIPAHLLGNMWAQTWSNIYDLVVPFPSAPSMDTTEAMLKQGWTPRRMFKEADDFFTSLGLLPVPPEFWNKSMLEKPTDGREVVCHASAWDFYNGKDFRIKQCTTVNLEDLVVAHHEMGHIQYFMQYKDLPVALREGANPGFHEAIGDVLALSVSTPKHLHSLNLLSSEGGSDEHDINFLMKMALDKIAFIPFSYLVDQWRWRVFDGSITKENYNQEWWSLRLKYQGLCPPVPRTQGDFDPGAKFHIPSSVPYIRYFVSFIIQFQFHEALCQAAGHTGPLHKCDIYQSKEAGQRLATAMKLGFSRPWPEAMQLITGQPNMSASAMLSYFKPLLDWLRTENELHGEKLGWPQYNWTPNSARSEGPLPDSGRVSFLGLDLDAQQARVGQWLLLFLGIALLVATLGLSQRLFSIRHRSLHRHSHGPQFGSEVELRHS
# Angiotensin-converting enzyme (Homo sapiens), sequence (Q9BYF1 whole entry, looked up): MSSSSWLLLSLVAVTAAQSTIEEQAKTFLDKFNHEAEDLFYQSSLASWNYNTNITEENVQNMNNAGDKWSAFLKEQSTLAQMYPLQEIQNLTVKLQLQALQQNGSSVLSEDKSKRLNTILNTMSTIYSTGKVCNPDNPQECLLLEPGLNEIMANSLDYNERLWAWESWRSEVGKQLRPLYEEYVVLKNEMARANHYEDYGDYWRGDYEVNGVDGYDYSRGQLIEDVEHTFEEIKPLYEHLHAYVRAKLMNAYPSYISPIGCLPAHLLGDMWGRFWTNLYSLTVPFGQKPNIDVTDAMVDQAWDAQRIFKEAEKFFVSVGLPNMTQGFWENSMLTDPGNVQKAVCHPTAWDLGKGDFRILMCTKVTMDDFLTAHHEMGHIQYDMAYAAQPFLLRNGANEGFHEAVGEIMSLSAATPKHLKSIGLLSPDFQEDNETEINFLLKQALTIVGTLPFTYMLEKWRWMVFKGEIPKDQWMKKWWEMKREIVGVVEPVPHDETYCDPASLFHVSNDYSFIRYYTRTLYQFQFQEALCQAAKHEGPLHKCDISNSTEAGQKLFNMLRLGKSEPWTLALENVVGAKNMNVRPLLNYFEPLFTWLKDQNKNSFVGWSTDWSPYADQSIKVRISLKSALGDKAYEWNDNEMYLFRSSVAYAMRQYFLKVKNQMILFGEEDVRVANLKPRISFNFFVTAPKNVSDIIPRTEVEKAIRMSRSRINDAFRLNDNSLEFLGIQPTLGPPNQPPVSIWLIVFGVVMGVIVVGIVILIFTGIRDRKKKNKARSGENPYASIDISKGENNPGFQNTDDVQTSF
compound,measurement,setting,value
C[C@H](CS)C(=O)N1CCC[C@H]1C(=O)O,Time to max. inhibition,[1],0.7 h
same,Duration,[2],2 h
same,inhibition,[3],69%
C[C@H](N[C@@H](CCc1ccccc1)C(=O)O)C(=O)N1CC(N(C)CCC2Nc3cc(Cl)c(S(N)(=O)=O)cc3S(=O)(=O)N2)C[C@H]1C(=O)O.Cl.Cl (stereo partly drawn),Change,Rattus norvegicus [4],36%
same,Change,Rattus norvegicus [5],0%
same,Time to max. inhibition,[6],2.7 h and 3 h
same,inhibition,[7],37%
same,Duration,Rattus norvegicus [8],>42 h
same,Change,Rattus norvegicus [9],40%
same,IC50,[10],18 nM
same,Change in MAP,Rattus norvegicus [11],-20% and -22%
same,inhibition,[12],96%
same,Duration,Rattus norvegicus [13],>24 h
same,Change,Rattus norvegicus [14],0%
same,Onset,Rattus norvegicus [15],0.5 h
same,Duration,[16],> 4 h and 3.7 h
same,Change,Rattus norvegicus [17],0%
same,Change,Rattus norvegicus [18],0%
C[C@H](N[C@@H](CCc1ccccc1)C(=O)O)C(=O)N1CC(NNC(=O)c2ccc(Cl)c(S(N)(=O)=O)c2)C[C@H]1C(=O)O (stereo partly drawn),Time to max. inhibition,[19],0.3 h
same,inhibition,[20],85%
same,Time to max. inhibition,[1],0.3 h
same,inhibition,[21],52%
same,Duration,[22],3 h
same,IC50,[23],26 nM
same,Duration,[24],0 h
C[C@H](N[C@@H](CCc1ccccc1)C(=O)O)C(=O)N1CCC[C@H]1C(=O)O,inhibition,[3],74%
C[C@H](N[C@@H](CCc1ccccc1)C(=O)O)C(=O)N1C[C@@H](NS(=O)(=O)c2cc3c(cc2Cl)NC=NS3(=O)=O)C[C@H]1C(=O)O,Change,Rattus norvegicus [25],0%
same,Time to max. inhibition,[6],0.3 h
same,Change,Rattus norvegicus [26],61%
same,Change,Rattus norvegicus [27],67%
same,Change,Rattus norvegicus [28],40%
same,inhibition,[12],78%
same,Change,Rattus norvegicus [29],0%
same,Duration,Rattus norvegicus [13],3 h
same,Onset,Rattus norvegicus [15],<0.25 h
same,Change,Rattus norvegicus [30],0%
same,Duration,[16],1.25 h
same,Change in MAP,Rattus norvegicus [31],-11%
NS(=O)(=O)c1cc2c(cc1Cl)N=CNS2(=O)=O [CHLOROTHIAZIDE],Change,Rattus norvegicus [32],100%
same,Change,Rattus norvegicus [33],71%
same,Change,Rattus norvegicus [34],83%
same,Change,Rattus norvegicus [35],94%
same,Change,Rattus norvegicus [36],60%
same,Change,Rattus norvegicus [37],0%
CCOC(=O)[C@H](CCc1ccccc1)N[C@@H](C)C(=O)N1CCC[C@H]1C(=O)O,Duration,Rattus norvegicus [38],4 h
same,Change in MAP,Rattus norvegicus [39],-10%
same,Duration,[40],> 3 h
same,Time to max. inhibition,[1],1 h
same,Duration,[2],> 4 h
same,Onset,Rattus norvegicus [15],1 h
C[C@H](N[C@@H](CCc1ccccc1)C(=O)O)C(=O)N1C(c2ccc(Cl)c(S(N)(=O)=O)c2)SC[C@H]1C(=O)O (stereo partly drawn),Change,Rattus norvegicus [4],0%
same,inhibition,[41],96%
same,Time to max. inhibition,[6],0.3 h
same,Change,Rattus norvegicus [42],-45%
same,Change,Rattus norvegicus [9],0%
same,IC50,[10],8 nM
same,Change,Rattus norvegicus [43],inactive
same,inhibition,[44],44%
same,Time to max. inhibition,[45],0.3 h
same,Change,Rattus norvegicus [14],-43%
same,Change,Rattus norvegicus [46],-42%
same,Change,Rattus norvegicus [47],-22%
C[C@H](N[C@@H](CCc1ccccc1)C(=O)O)C(=O)N1CC2(C[C@H]1C(=O)O)Nc1cc(Cl)c(S(N)(=O)=O)cc1S(=O)(=O)N2 (stereo partly drawn),Time to max. inhibition,[6],1 h
same,IC50,[10],85 nM
same,Change,Rattus norvegicus [48],inactive
same,Duration,[16],2.1 h
same,inhibition,[49],54%
C[C@H](N[C@@H](CCc1ccccc1)C(=O)O)C(=O)N1C[C@@H](NS(=O)(=O)c2cc3c(cc2Cl)N=CNS3(=O)=O)C[C@H]1C(=O)O,IC50,[10],23 nM
